Values of other authors in patent US20180028452A1, “ANTIEMETIC EXTENDED RELEASE SOLID DOSAGE FORMS” (RedHill Biopharma Ltd., priority 2013, published 2018).
Structures can show the parent of a compound that is named as a salt.

Columns and labels:
[1] = scale of Pliska et al., J. Chromatog. 216, 79, 1981
[2] = water and normal saline

Row | Compound | hydropathy value (relative hydrophobic character) [1] | solubility [2]
1 | CC[C@H](C)[C@H](N)C(=O)O [iso-leucine] | 1.83 | –
2 | Cc1nccn1CC1CCc2c(c3ccccc3n2C)C1=O (racemic) [Ondansetron HCl dihydrate, Ondansetron hydrochloride] | – | soluble in water and normal saline
3 | N[C@@H](CC(=O)O)C(=O)O [aspartic acid] | −2.15 | –
4 | NCC(=O)O [glycine] | 0 | –
